“And” between values parts separate entries of the source, which are not always exact repeats. Equal values may be shown once. Numbers after ± are expanded uncertainties.
Assay: not given
Settings: 353.15 K; Liquid

**Q.** For `CC(C)=O` [acetone], which “vapor or sublimation pressure” value is on record?
**A.** 215.16 ± 1.4 kPa and 215.04 ± 1.4 kPa and 216.82 ± 5.5 kPa

**Q.** With `CCO` [ethanol] as the compound, how does the “vapor or sublimation pressure” value read?
**A.** 109.08 ± 0.72 kPa

**Q.** With `CO` [methanol] as the compound, how does the “vapor or sublimation pressure” value read?
**A.** 182.61 ± 1.2 kPa

**Q.** Which “vapor or sublimation pressure” value does the source give for `CC(C)O` [propan-2-ol] here?
**A.** 92.26 ± 0.62 kPa and 91.99 ± 0.61 kPa

**Q.** Which “vapor or sublimation pressure” value does the source give for `C1CCOC1` [tetrahydrofuran] here?
**A.** 155.92 ± 1 kPa and 157.86 ± 1 kPa

**Q.** Which “vapor or sublimation pressure” value does the source give for `O` [water] here?
**A.** 47.37 ± 0.58 kPa and 47.82 ± 0.58 kPa

Assay: activity coefficient (dimensionless); of the first substance listed, at infinite dilution; xn = mol fraction of the nth substance listed
Settings: 353.15 K; 101.33 kPa; Liquid; Static method; x1 = 0

**Q.** For `CC(C)=O` [acetone] + CCCC[n+]1ccn(C)c1.O=S(=O)([N-]S(=O)(=O)C(F)(F)F)C(F)(F)F, which activity coefficient is on record?
**A.** 0.406 ± 0.01

**Q.** For `CC(C)=O` [acetone] + CCn1cc[n+](C)c1.O=S(=O)([N-]S(=O)(=O)C(F)(F)F)C(F)(F)F, which activity coefficient is on record?
**A.** 0.438 ± 0.01

**Q.** Which activity coefficient does the source give for `CC(C)=O` [acetone] + COP(=O)([O-])OC.Cn1cc[n+](C)c1 here?
**A.** 0.98 ± 0.01

**Q.** Which activity coefficient does the source give for `CCO` [ethanol] + COP(=O)([O-])OC.Cn1cc[n+](C)c1 here?
**A.** 0.115 ± 0.01

**Q.** For `CO` [methanol] + COP(=O)([O-])OC.Cn1cc[n+](C)c1, which activity coefficient is on record?
**A.** 0.029 ± 0.01

**Q.** For `CC(C)O` [propan-2-ol] + CCCC[n+]1ccn(C)c1.O=S(=O)([N-]S(=O)(=O)C(F)(F)F)C(F)(F)F, which activity coefficient is on record?
**A.** 1.1 ± 0.01

**Q.** Which activity coefficient does the source give for `CC(C)O` [propan-2-ol] + CCn1cc[n+](C)c1.O=S(=O)([N-]S(=O)(=O)C(F)(F)F)C(F)(F)F here?
**A.** 1.42 ± 0.02

**Q.** With `C1CCOC1` [tetrahydrofuran] + CCn1cc[n+](C)c1.O=S(=O)([N-]S(=O)(=O)C(F)(F)F)C(F)(F)F as the compound, how does the activity coefficient read?
**A.** 0.8 ± 0.01

**Q.** Which activity coefficient does the source give for `C1CCOC1` [tetrahydrofuran] + COP(=O)([O-])OC.Cn1cc[n+](C)c1 here?
**A.** 3.21 ± 0.05

**Q.** For `O` [water] + CCCC[n+]1ccn(C)c1.O=S(=O)([N-]S(=O)(=O)C(F)(F)F)C(F)(F)F, which activity coefficient is on record?
**A.** 2.27 ± 0.03

**Q.** Which activity coefficient does the source give for `O` [water] + CCn1cc[n+](C)c1.O=S(=O)([N-]S(=O)(=O)C(F)(F)F)C(F)(F)F here?
**A.** 2.32 ± 0.04

**Q.** Which activity coefficient does the source give for `O` [water] + COP(=O)([O-])OC.Cn1cc[n+](C)c1 here?
**A.** 0.028 ± 0.01

From the NIST ThermoML archive (doi:10.1016/j.fluid.2005.01.002)
